# Measured values reported in patent publication US20230364091A1, “COMPOSITIONS AND METHODS FOR TREATING CANCER” (The Regents of the University of California, priority 2020, published 2023).
# Key:
# [1] = Brain penetration in non-tumor bearing mice; assay type: in vivo; conditions: mouse, brain and plasma, unbound ratio of drug in brain to plasma
# Description: Disclosed in table 5 Brain to plasma percentages and unbound ratios of drugs in brain to plasma of indicated drugs in non-tumor bearing mice
# [2] = tested on: HCC827 cells (EGFR exon 19 deletion); assay: Cellular IC50, Cell Titer Glo viability, HCC827; assay type: cell-based; conditions: Homo sapiens, 72 hours
# Protocol: (§1) PC-9 cells were purchased from Sigma, and HCC827 cells were purchased from ATCC. Each cell line was maintained at ≤passage 10 at 37° C. in a humidified incubator with 5% CO2. Cells were plated in 96-well optical bottom plates (Corning #3903; Corning, NY) at a cell density of 5,000 cells/well, allowed to adhere for minimally 16 hours, and subsequently treated with the test compounds using an 11-point serial dilution (1:3) in duplicate using an HP D300 digital 4 dispenser (Tecan, Morrisville, NC). 72 hours after addition of the test compounds, Cell Titer Glo reagent (Promega, Madison, WI) was added to the plate according to manufacturer's protocol and luminescence measured using a Spectramax M5 (Molecular Devices, San Jose, CA). IC50s were calculated using the 4-parameter variable slope curve fit using the equation below where, Y and X are variables plotted, Top and Bottom are plateaus in the units of the Y axis, Log IC50 is the Log transformation of the IC50 value and HillSlope is the Hill Slope for the curve and describes curve steepness (GraphPad Prism, version 6.07, GraphPad Software, Inc.). Y=Bottom+(Top−Bottom)/(1+10((Log IC50−X)*HillSlope)))
# [3] = tested on: PC-9 cells (EGFR exon 19 deletion); assay: Cellular IC50, Cell Titer Glo viability, PC-9; assay type: cell-based; conditions: Homo sapiens, 72 hours
# Protocol: as §1
Kp uu [1],IC50 [2],IC50 [3],SMILES
0.341,–,–,"Fc1c(Br)cccc1Nc1ncnc2cc3c(cc12)OC(CN1CCOCC1)CO3 (racemic) [JGK063, (±)-N-(3-Bromo-2-fluorophenyl)-7-[(morpholin-4-yl)methyl]-7,8-dihydro[1,4]dioxino[2,3-g]quinazolin-4-amine]"
1.18,–,–,"CN(C)CC1COc2cc3ncnc(Nc4cccc(Br)c4F)c3cc2O1 (racemic) [JGK066, (±)-N-(3-Bromo-2-fluorophenyl)-7-[(dimethylamino)methyl]-7,8-dihydro[1,4]dioxino[2,3-g]quinazolin-4-amine]"
1.18,–,–,"CN1CCN(CC2COc3cc4ncnc(Nc5cccc(Br)c5F)c4cc3O2)CC1 (racemic) [JGK068, (±)-N-(3-Bromo-2-fluorophenyl)-7-[(4-methylpiperazin-1-yl)methyl]-7,8-dihydro[1,4]dioxino[2,3-g]quinazolin-4-amine]"
–,12.7 nM,21.7 nM,"Fc1c(Br)cccc1Nc1ncnc2cc3c(cc12)O[C@@H](CN1CCOCC1)CO3 [JCN063S, (S)—N-(3-bromo-2-fluorophenyl)-7-(morpholinomethyl)-7,8-dihydro-[1,4]dioxino[2,3-g]quinazolin-4-amine]"
–,49.5 nM,53.9 nM,"Fc1c(Br)cccc1Nc1ncnc2cc3c(cc12)O[C@@H](CN1CCCCC1)CO3 [JCN065S, (S)—N-(3-bromo-2-fluorophenyl)-7-(piperidin-1-ylmethyl)-7,8-dihydro-[1,4]dioxino[2,3-g]quinazolin-4-amine]"
–,25.7 nM,36.2 nM,"Fc1c(Br)cccc1Nc1ncnc2cc3c(cc12)O[C@@H](CN1CCCC1)CO3 [JCN067S, (S)—N-(3-bromo-2-fluorophenyl)-7-(pyrrolidin-1-ylmethyl)-7,8-dihydro-[1,4]dioxino[2,3-g]quinazolin-4-amine]"
1.18,–,–,"CN1CCN(C[C@H]2COc3cc4ncnc(Nc5cccc(Br)c5F)c4cc3O2)CC1 [JGK068S, (7S)—N-(3-Bromo-2-fluorophenyl)-7-[(4-methylpiperazin-1-yl)methyl]-7,8-dihydro[1,4]dioxino [2,3-g]quinazolin-4-amine]"
0.798,–,–,"Fc1c(Br)cccc1Nc1ncnc2cc3c(cc12)O[C@@H](CN1CCNCC1)CO3 [JGK083S, (7S)—N-(3-Bromo-2-fluorophenyl)-7-[(piperazin-1-yl)methyl]-7,8-dihydro[1,4]dioxino [2,3-g]quinazolin-4-amine]"
